Source: PubChem BioAssay AID2337 (Sanford-Burnham Center for Chemical Genomics, 2010)

Test system: TNFa-induced NF-kB reporter cells, inhibition
Test: TNFa-triggered NF-kB activation inhibitors, SAR follow-up, cell-based, revised (AID 2337)

IC50 [µM] | Structure (SMILES)
3.15 | CC1Sc2ccc(S(=O)(=O)N3CCC(C(=O)Nc4ccc(Cl)cc4)CC3)cc2NC1=O (configuration not stated)
19.7 | O=C(Nc1nc2c(F)cc(F)cc2s1)c1ccc([N+](=O)[O-])o1
